The values that follow come from PubChem BioAssay AID1117330.

Activity calls are given as the source filed them. No rule for the calls is given here.

The test relates to HT-29 viability, CellTiter-Glo luminescence. The test is described as follows: cytotoxicity toward HT-29 cells – cell-based, CellTiter-Glo luminescence, IC50, dose response (AID 1117330).

On to `CCCCCCCCCCCCCC[N+](C)(C)C`, for which the IC50 was 1320 nM.

On to `O=C1[O][Bi][O]c2ccccc21`, for which the IC50 is > 20000 nM (inactive).

On to `O=C(O)C1(C(=O)O)CCC1.[NH2-].[NH2-].[Pt+2]`, for which the IC50 is > 20000 nM (inactive).

For the compound `OCCN1CCN(CC/C=C2/c3ccccc3Sc3ccc(C(F)(F)F)cc32)CC1`, the half-inhibitory concentration (IC50) was 1810 nM.

Turning to `Cc1ccc([N+](=O)[O-])[c]2c1[O][Hg]2`, the IC50 was 1440 nM.

In the case of `CC(=O)[O][Hg][c]1ccccc1`, the IC50 was 799 nM.
